These are literature values, as cited in US7785629B2, “Bicalutamide-adsorbates, process for preparing same, and pharmaceutical compositions thereof” (Helm AG, priority 2005, dated 2010).

The conditions of this data set: water and aqueous buffers at various pH values.

As for `CC(O)(CS(=O)(=O)c1ccc(F)cc1)C(=O)Nc1ccc(C#N)c(C(F)(F)F)c1` (stereo not shown) [Bicalutamide, N-[4′-cyano-3′-trifluoromethyl-phenyl]-3-[4″-fluorophenylsulfonyl]-2-hydroxy-2-methyl-propionamide], the Solubility result is reported as “sparingly soluble”.
